These results are taken from ChEMBL document CHEMBL1147756, “Synthesis and antiviral activity of 7-deazaneplanocin A against orthopoxviruses (vaccinia and cowpox virus)” (Bioorg Med Chem Lett, 2006).

For one experiment, the system named is Cowpox virus. The experiment is described as follows: Antiviral activity against Cowpox virus in HFF cells. In kind it is functional, organism-based.
The next experiment concerns Vaccinia virus. The experiment is described as follows: Antiviral activity against Vaccinia virus in HFF cells. Type of experiment: functional, organism-based. As to conditions: Orthopoxvirus vaccinia.
Another experiment concerns HFF. The experiment is described as follows: Cytotoxicity in HFF cells. Type of experiment: functional. The following applies: Homo sapiens.

As to `Nc1ccn(C[C@@H](CO)OCP(=O)(O)O)c(=O)n1` [CIDOFOVIR], the figures for the EC50 in the experiment on Cowpox virus and with Vaccinia virus were 5 µM and 4.8 µM, respectively.
As for `Nc1ncnc2c1ccn2[C@@H]1C=C(CO)[C@@H](O)[C@H]1O` [DEAZANEPLANOCIN A], in the experiment on Cowpox virus, the EC50 (as a rule, the concentration giving half of the maximal effect) worked out at 1.2 µM and the EC90 (as a rule, the concentration needed for an effect of 90%) is 4.6 µM. In addition, the CC50 (usually the concentration giving 50% cytotoxicity) with HFF is above 300 µM. In the experiment with Vaccinia virus, this compound came in with an EC50 of 3.4 µM and an EC90 of 21.5 µM.
